{"source": "patent US20030064380A1", "about": "“Anergy-regulated molecules” (The Center For Blood Research, Inc., priority 2001, published 2003)", "tested_on": "D5 Th1 T cell line", "test": "nucleic acid expression profile of D5 Th1 T cell line stimulated with 500 nM ionomycin, 1 μM CsA plus ionomycin or 20 nM PMA plus ionomycin; 11K chip, first replicate", "type": "cell-based, murine", "parameters": "expression level of Msa.15983.0_f_at / expression level of Msa.1669.0_f_at / expression level of Msa.18713.0_g_at / expression level of D86609_s_at / expression level of TC19211_at / expression level of TC21156_at / expression level of TC24045_at / expression level of TC30384_g_at / expression level of TC3225_at / expression level of TC38978_at / expression level of TC39080_at / expression level of TC17495_at: unit not given here", "protocol": "D5 or primary T cells from NFAT1−/− or wild type DO11.10 transgenic mice were stimulated for 2, 6 or 16 hours with 500 nM ionomycin, 20 nM PMA plus 500 nM ionomycin, or 1 μM CsA plus 500 nM ionomycin. Total RNA was isolated with an RNeasy kit (QIAGEN). Ten μg of total RNA was quantitatively amplified and biotin-labeled as described (Byrne et al., (2000) “Preparation of mRNA for Expression Monitoring” Current Protocols in Molecular Biology (John Wiley & Sons, Inc.) pp. 22.22.21-22.22.13). Hybridization to GeneChips® (Affymetrix) displaying probes for 11,000 mouse genes/ESTs was performed at 40° C. overnight in a mix that included 10 μg fragmented RNA, 6× SSPE, 0.005% Triton X-100 and 100 μg/ml herring sperm DNA in a total volume of 200 μl. Chips were washed, stained with SA-PE and read using an Affymetrix GeneChip® scanner and accompanying gene expression software. Labeled bacterial RNAs of known concentration were spiked into each chip hybridization mix to generate an internal standard curve, allowing normalization between chips and conversion of raw hybridization intensity values to mRNA frequency (mRNA molecules per million).\nNucleic acid expression profiles were obtained from a T cell line at multiple time points and in various T cell states. The D5 Th1 T cell line was stimulated in three different ways: 1) ionomycin alone (e.g., causing the regulatory factor NFAT to move from the cytoplasm to the nucleus); 2) ionomycin+PMA (e.g., causing both NFAT and the transcription factor AP-1 to enter the nucleus); 3) ionomycin +cyclosporin A (CsA) (e.g., preventing NFAT from entering the nucleus in response to ionomycin). […] Cells were stimulated for 0, 2, 6, and 16 hours. RNA was isolated and analyzed on a nucleic acid chip with probes that monitor the expression of 11,000 nucleic acids located at unique addresses. The experiment was done twice (i.e., with two replicates, Rep. 1 and Rep. 2). Nucleic acid expression at the 2, 6 and 16 hour timepoints was compared to nucleic acid expression at 0 hours.\nThe nucleic acid expression data was stored in a computer database. A database query was used to identify all nucleic acids that were deemed “increasing” or “decreasing” in response to ionomycin (relative to the 0 hour sample) in at least one timepoint in Rep. 1, and the nucleic acids were also deemed “increasing” or “decreasing” in response to ionomycin in Rep. 2.\nTo test the hypothesis that NFAT in the absence of AP-1 and NFKB induced a genetic program of anergy, genes induced in D5 T cells by ionomycin stimulation alone were evaluated (FIGS. 1, 2 and 6). Samples from D5 cells stimulated with ionomycin plus CsA, which blocks anergy induction, and ionomycin plus PMA, which pharmacologically mimic complete stimulation through the TCR and CD28 were included. RNA was prepared from unstimulated D5 T cells and from cells stimulated for 2, 6 or 16 h under these three conditions, and gene transcription profiles were evaluated using Affymetrix oligonucleotide arrays (FIG. 6A).", "data": [{"smiles": "C[C@H](CCC(=O)O)C[C@H](C)C[C@H](C)C(=O)/C=C(\\O)[C@H](C)C[C@H](C)C/C=C/[C@@H](C)[C@@H](O)[C@@H](C)[C@@H](O)C[C@@H]1CC[C@@](C)([C@H]2CC[C@@](C)([C@@H](C)O)O2)O1", "note": "[Ionomycin, ionomycin]", "values": [{"measurement": "expression level of TC30384_g_at", "setting": "6 h", "result": 73}, {"measurement": "expression level of TC30935_at", "setting": "6 h", "result": 27}, {"measurement": "expression level of TC30992_s_at", "setting": "6 h", "result": 4}, {"measurement": "expression level of TC31681_at", "setting": "6 h", "result": 28}, {"measurement": "expression level of TC33206_at", "setting": "6 h", "result": 8}, {"measurement": "expression level of TC33833_at", "setting": "6 h", "result": 8}, {"measurement": "expression level of TC34186_at", "setting": "6 h", "result": 26}, {"measurement": "expression level of TC36089_at", "setting": "6 h", "result": 122}, {"measurement": "expression level of TC36583_at", "setting": "6 h", "result": 20}, {"measurement": "expression level of TC37631_at", "setting": "6 h", "result": 27}, {"measurement": "expression level of TC38094_at", "setting": "6 h", "result": 7}, {"measurement": "expression level of TC38978_at", "setting": "6 h", "result": 9}, {"measurement": "expression level of TC39012_at", "setting": "6 h", "result": 45}, {"measurement": "expression level of TC39080_at", "setting": "6 h", "result": 14}, {"measurement": "expression level of TC39762_at", "setting": "6 h", "result": 41}, {"measurement": "expression level of TC40487_g_at", "setting": "6 h", "result": 12}, {"measurement": "expression level of TC41014_at", "setting": "6 h", "result": 15}, {"measurement": "expression level of U44731_s_at", "setting": "6 h", "result": 26}, {"measurement": "expression level of X67914_s_at", "setting": "6 h", "result": 62}, {"measurement": "expression level of Z31202_s_at", "setting": "6 h", "result": 30}, {"measurement": "expression level of aa144045_s_at", "setting": "6 h", "result": 39}, {"measurement": "expression level of aa174748_at", "setting": "6 h", "result": 23}, {"measurement": "expression level of c81206_rc_at", "setting": "6 h", "result": 16}, {"measurement": "expression level of k00083_s_at", "setting": "6 h", "result": 32}, {"measurement": "expression level of x12531_s_at", "setting": "6 h", "result": 34}, {"measurement": "expression level of D86609_s_at", "setting": "16 h", "result": 20}, {"measurement": "expression level of ET63436_at", "setting": "16 h", "result": 86}, {"measurement": "expression level of MIP1-B_at", "setting": "16 h", "result": 119}, {"measurement": "expression level of Msa.11439.0_s_at", "setting": "16 h", "result": 34}, {"measurement": "expression level of Msa.15983.0_f_at", "setting": "16 h", "result": 17}, {"measurement": "expression level of Msa.1669.0_f_at", "setting": "16 h", "result": 35}, {"measurement": "expression level of Msa.18713.0_g_at", "setting": "16 h", "result": 28}, {"measurement": "expression level of Msa.21745.0_s_at", "setting": "16 h", "result": 6}, {"measurement": "expression level of TC3225_at", "setting": "16 h", "result": 23}, {"measurement": "expression level of TC14671_g_at", "setting": "16 h", "result": 13}, {"measurement": "expression level of TC16364_at", "setting": "16 h", "result": 34}, {"measurement": "expression level of TC16828_at", "setting": "16 h", "result": 30}, {"measurement": "expression level of TC17132_at", "setting": "16 h", "result": 32}, {"measurement": "expression level of TC17495_at", "setting": "16 h", "result": 12}, {"measurement": "expression level of TC17558_at", "setting": "16 h", "result": 23}, {"measurement": "expression level of TC18221_at", "setting": "16 h", "result": 11}, {"measurement": "expression level of TC19211_at", "setting": "16 h", "result": 12}, {"measurement": "expression level of TC21156_at", "setting": "16 h", "result": 16}, {"measurement": "expression level of TC23346_s_at", "setting": "16 h", "result": 13}, {"measurement": "expression level of TC23450_s_at", "setting": "16 h", "result": 13}, {"measurement": "expression level of TC24045_at", "setting": "16 h", "result": 15}, {"measurement": "expression level of TC24067_at", "setting": "16 h", "result": 15}, {"measurement": "expression level of TC25965_at", "setting": "16 h", "result": 16}, {"measurement": "expression level of TC27326_g_at", "setting": "16 h", "result": 29}, {"measurement": "expression level of TC29889_at", "setting": "16 h", "result": 11}, {"measurement": "expression level of TC30384_g_at", "setting": "16 h", "result": 57}, {"measurement": "expression level of TC30935_at", "setting": "16 h", "result": 22}, {"measurement": "expression level of TC30992_s_at", "setting": "16 h", "result": 6}, {"measurement": "expression level of TC31681_at", "setting": "16 h", "result": 18}, {"measurement": "expression level of TC33206_at", "setting": "16 h", "result": 6}, {"measurement": "expression level of TC33833_at", "setting": "16 h", "result": 6}, {"measurement": "expression level of TC34186_at", "setting": "16 h", "result": 13}, {"measurement": "expression level of TC36089_at", "setting": "16 h", "result": 75}, {"measurement": "expression level of TC36583_at", "setting": "16 h", "result": 18}, {"measurement": "expression level of TC37631_at", "setting": "16 h", "result": 26}, {"measurement": "expression level of TC38094_at", "setting": "16 h", "result": 7}, {"measurement": "expression level of TC38978_at", "setting": "16 h", "result": 12}, {"measurement": "expression level of TC39012_at", "setting": "16 h", "result": 35}, {"measurement": "expression level of TC39080_at", "setting": "16 h", "result": 14}, {"measurement": "expression level of TC39762_at", "setting": "16 h", "result": 31}, {"measurement": "expression level of TC40487_g_at", "setting": "16 h", "result": 8}, {"measurement": "expression level of TC41014_at", "setting": "16 h", "result": 12}, {"measurement": "expression level of U44731_s_at", "setting": "16 h", "result": 17}, {"measurement": "expression level of X67914_s_at", "setting": "16 h", "result": 51}, {"measurement": "expression level of Z31202_s_at", "setting": "16 h", "result": 22}, {"measurement": "expression level of aa144045_s_at", "setting": "16 h", "result": 33}, {"measurement": "expression level of aa174748_at", "setting": "16 h", "result": 22}, {"measurement": "expression level of c81206_rc_at", "setting": "16 h", "result": 15}, {"measurement": "expression level of k00083_s_at", "setting": "16 h", "result": 35}, {"measurement": "expression level of x12531_s_at", "setting": "16 h", "result": 97}]}]}
